Data on 1 compound can be found in patent publication EP4570800A1, “CRYSTAL FORM OF PYRIDINOPYRIMIDINONE COMPOUND, ACID SALT THEREOF, CRYSTAL FORM OF ACID SALT THEREOF, AND USE” (Wuhan Humanwell Innovative Drug Research and Development …, priority 2022, dated 2024).

For this test, the target named is T1, KRAS G12C::SOS1 (Homo sapiens, UniProt Q07889).
T1 sequence (Q07889 564-1049 limits assumed): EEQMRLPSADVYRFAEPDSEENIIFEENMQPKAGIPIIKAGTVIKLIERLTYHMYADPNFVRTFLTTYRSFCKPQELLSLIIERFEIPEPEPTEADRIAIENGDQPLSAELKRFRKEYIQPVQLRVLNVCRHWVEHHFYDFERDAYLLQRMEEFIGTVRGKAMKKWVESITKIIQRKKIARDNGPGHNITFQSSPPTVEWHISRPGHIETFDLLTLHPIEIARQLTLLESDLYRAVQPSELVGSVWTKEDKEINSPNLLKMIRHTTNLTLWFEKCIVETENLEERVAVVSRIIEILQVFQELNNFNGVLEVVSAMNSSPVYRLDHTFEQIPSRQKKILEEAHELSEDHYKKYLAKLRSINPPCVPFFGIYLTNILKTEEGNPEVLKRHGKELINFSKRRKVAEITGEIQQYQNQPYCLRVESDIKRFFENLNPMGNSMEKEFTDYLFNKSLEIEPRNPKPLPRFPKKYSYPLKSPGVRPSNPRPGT
In words: Inhibition of KRAS G12C::SOS1 binding (anti-6his-Tb / anti-GST-XL665 fluorescence ratio). Conditions: GST-KRAS G12C and His-SOS1.

In general, IC50 refers to the concentration at which inhibition is half-maximal. On to `Cc1nc(N[C@H](C)c2cccc(S(F)(F)(F)(F)F)c2)c2cn(C3(CF)CC3)c(=O)cc2n1` [Compound of formula I, (R)-6-(1-(fluoromethyl)cyclopropyl)-2-methyl-4-((1-(3-(pentafluorosulfanyl)phenyl)ethyl)amino)pyrido[4,3-d]pyrimidin-7(6H)-one], for which the IC50 was 3.94 nM.
